Target: T1, arrestin-1 (monomerizing mutant F85A, F197A) (Bos taurus, UniProt P08168, F197A/F85A)
T1 construct: made in house; host or cells: E. coli NiCo (DE3) cells (New England Biolabs), pET-15b vector
Assay: Fluorescence anisotropy binding of fluorescein-labelled peptides to arrestin-1
Design: species or system bovine
From the text: Synthesized cDNAs of bovine arrestin-1, human arrestin-2 and human arrestin-3 were ordered from Genewiz, amplified by PCR and cloned (Supplementary Information Table 5) into the pET-15b vector (Novagen), using the Gibson Assembly protocol. The constructs contained an N-terminal hexa histidine tag linked by a linker that contained a Tobacco Etch Virus cleavage site (TEV; […]). PCR was used to introduce the monomerizing arrestin-1 mutations (F85A, F197A)[58]. Note that this mutant was employed for fluorescence anisotropy, trypsin digestion, and NMR experiments. Wild-type arrestin-2 and -3 were used for fluorescence anisotropy and trypsin digestion experiments. […] The arrestin-1 in this construct had the wild-type sequence. Note that this construct differs slightly from that previously published[59],[60] and was optimized for purification. We verified the functionality of this fusion construct using the standard centrifugal pull-down assay using phosphorylated rhodopsin in native ROS membranes.
0.1–0.2 mg of lyophilized peptide was dissolved in 50 µl of 50 mM phosphate-buffered saline (PBS) buffer at pH 7.0, and then two molar equivalents of fluorescein-5-maleimide dye stock dissolved in dimethylsulfoxid was added. The reaction was carried out at RT in the dark. After 1 h the reaction was topped up with 1 ml of ice-cold 100% acetone and stored until the next day at −20 °C. The precipitated peptide was centrifuged (13,000 × g) for 10 min. The labeled and precipitated peptide was sedimented, and the supernatant was removed. The peptide was resuspended again in ice-cold acetone, stored for 1 h at −20 °C and centrifuged (13,000 × g) for 10 min. […] The precipitated peptide was dried at RT in the dark. It was dissolved in 50 µl of 20 mM Bis-Tris propane pH 7.0 and 150 mM NaCl and its concentration was determined by absorbance. A molar extinction coefficient of 70,000/M/cm at pH 7.0 was assumed for calculating the concentration of the labeled peptide stock.
An 11-step serial dilution series of arrestin in 20 mM Bis-Tris propane pH 7.0, 150 mM NaCl, 8 mM 2‑mercaptoethanol, 2% (w/w) BSA, 0.02% (v/v) Tween-20 was prepared and transferred to a black high-bottom 384-well plate (Greiner). As control for free peptide, a position with only buffer was included. The peptide was added at a final concentration of 20 nM to each well. The plate was closed by a clear cover and vortexed for 15 s. Afterwards it was centrifuged (800 × g) for 2 min and stored at RT for 20 min. The reading was performed by default settings of PHERAstar plate-reader (BMG Labtech) and excitation‑/emission-wavelengths of 485 nm (12 nm bandpass)/520 nm (30 nm bandpass) were used. The analysis was performed using Origin2016 (Microcal Inc) software by fitting the data to a one-to-one binding model:2 r=R0+△R*P/Kd+P, where r stands for anisotropy, R0 stands for anisotropy of the ligand, ΔR stands for anisotropy of the complex minus anisotropy of the ligand, P stands for the concentration of protein, and Kd stands for the dissociation constant of the ligand.

T1 sequence (P08168 whole entry F85A/F197A): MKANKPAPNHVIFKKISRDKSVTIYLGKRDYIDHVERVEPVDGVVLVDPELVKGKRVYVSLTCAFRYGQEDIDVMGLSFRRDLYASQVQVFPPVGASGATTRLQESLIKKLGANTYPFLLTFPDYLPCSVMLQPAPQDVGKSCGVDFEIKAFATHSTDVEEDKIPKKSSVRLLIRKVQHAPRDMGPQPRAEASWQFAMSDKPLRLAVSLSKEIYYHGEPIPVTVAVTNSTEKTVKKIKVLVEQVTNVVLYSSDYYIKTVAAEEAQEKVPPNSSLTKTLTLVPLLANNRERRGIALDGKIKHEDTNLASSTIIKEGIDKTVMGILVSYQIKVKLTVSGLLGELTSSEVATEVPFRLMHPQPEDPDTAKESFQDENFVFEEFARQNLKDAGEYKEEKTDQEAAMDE

Sequence: CDDEASTTVSKTETSQVAPA [5P, multiply phosphorylated rhodopsin C-terminus peptide lacking key site pS343]
- binding to arrestin-1 (in words): significant loss of affinity

— publication PMC6424980, “Distinct G protein-coupled receptor phosphorylation motifs modulate arrestin affinity and activation and global conformation” (Nature Communications, 2019)
